The text below walks through data of PubChem BioAssay (NCI).

Molecules are shown by their SMILES.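 Assay format: 96-well plates, 48-hour exposure. TGI: total growth inhibition.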

Common to all, as to experiment: NCI anticancer screen, dose series, 48 h
Experiment [1] has as its system A498 renal.
In experiment [2] the test system is HCC-2998 colon.
Experiment [3] concerns HS 578T breast.
Experiment [4] relates to MDA-MB-435.
For experiment [5], the system named is NCI-H522 lung.
Experiment [6] concerns NCI/ADR-RES ovarian.
Experiment [7] relates to SK-MEL-2 melanoma.
Experiment [8] has as its system SW-620 colon.
For experiment [9], the system named is TK-10 renal.
Experiment [10] has as its system UO-31 renal.

`O=[N+]([O-])c1cccc2nc3ccccc3c(NCCC[N+]3([O-])CCCCC3)c12`: the TGI in experiment [1] was 2.47 µM; in experiment [2], 0.272 µM; in [3] it was 4.02 µM; in experiment [4], 0.44 µM; in experiment [5] it was 0.345 µM; in experiment [6], more than 100 µM. Besides, the TGI was 0.354 µM in experiment [7], more than 34.8 µM in experiment [8], 10.9 µM in [9] and more than 58.6 µM in experiment [10].

As to `C1OCN2c3nonc3N3COCN4c5nonc5N1C2C43` (stereo not given), the TGI in experiment [1], in experiment [2], in experiment [3], in experiment [4], in experiment [5] and in [6] was more than 100 µM throughout. For the same compound, the TGI in [7], in experiment [8], in [9] and in [10] was more than 100 µM throughout.

Turning to `CC1CCC2c3c([nH]c4ccccc34)C3C(=O)N(C4CCCCC4)C(=O)C3C2C1` (stereo not given), the TGI in [1] was 37.9 µM; in experiment [2] it was more than 100 µM; in experiment [3], 57.4 µM; in experiment [4], more than 100 µM; in [5], more than 100 µM; in experiment [6] it was more than 100 µM. Besides, the TGI in experiment [7] was 40.3 µM; in experiment [8] it was more than 100 µM; in experiment [9], 27.1 µM; in [10], 37.2 µM.

Take `COC(=O)C1=C(OC(=O)/C(=C/c2ccc(Cl)cc2)c2ccccc2)C(C(=O)OC)[C@@]2(O)[C@@H](C(=O)OC)[C@H](C)C[C@@H]1[C@@H]2C(=O)OC` (stereo not given in full): the TGI in [1], in [2], in experiment [3], in [4], in [5] and in [6] was more than 100 µM in each case. Besides, the TGI in experiment [7], in experiment [8], in [9] and in [10] was more than 100 µM throughout.

On to `Cc1ccc(S(=O)(=Nc2ccccc2)C(C(C)C)C(C)(C)Cl)cc1` (stereo not given), for which the TGI in [1] was more than 50 µM; in [2], more than 50 µM; in [3], more than 50 µM; in experiment [4], 38.6 µM; in experiment [5], more than 50 µM; in [6], more than 50 µM. In addition, the TGI is 43.9 µM in experiment [7], more than 50 µM in experiment [8], more than 50 µM in [9] and more than 50 µM in experiment [10].

For the compound `COc1cc2c3c(cc(Cl)nc3c1OC)C(O)(CC(C)=O)C(=O)N2` (stereo not given), the TGI in experiment [1] was 33.2 µM; in [2], more than 60.5 µM; in [3], more than 100 µM; in [4] it was 30.9 µM; in experiment [5], 26 µM; in [6] it was more than 63.9 µM. The TGI in [7] is 45.7 µM; in experiment [8], more than 71 µM; in [9] it was 37.3 µM; in [10], more than 55.6 µM.

Turning to `N#CC1N(C(=O)c2ccc(F)cc2)c2ccccc2N1C(=O)c1ccc(F)cc1`, the TGI in experiment [1] was more than 100 µM; in experiment [2], more than 100 µM; in experiment [3] it was more than 100 µM; in experiment [4], more than 100 µM; in experiment [5], more than 100 µM; in [6] it was 93.5 µM. In addition, the TGI in experiment [7], in experiment [8], in [9] and in [10] was more than 100 µM throughout.

On to `O=C(c1ccc(Cl)cc1)N(Cc1cccnc1)C(=S)N(Cc1cccnc1)C(=O)c1ccc(Cl)cc1`, for which the TGI in experiment [1] was 91.5 µM; in experiment [2], 61.3 µM; in experiment [3] it was more than 100 µM; in [4], more than 100 µM; in experiment [5], 69.1 µM; in [6], more than 100 µM. Besides, the TGI is 49 µM in experiment [7], more than 100 µM in experiment [8], more than 100 µM in experiment [9] and 98.4 µM in experiment [10].

As for `CC(C)OC(=O)c1ccc(CCC2=CC(=O)C(Br)=CC2=O)cc1`, the TGI in experiment [1] was more than 85 µM; in experiment [2], 31.9 µM; in experiment [3], 38.1 µM; in experiment [4] it was 32.9 µM; in [5] it was 19.3 µM; in experiment [6], 37.4 µM. Further, the TGI came out at 41.7 µM in experiment [7], 29.2 µM in experiment [8], 45.3 µM in experiment [9] and 27.1 µM in experiment [10].

Take `CCN(CC)C(=S)SNCCc1ccc(S(N)(=O)=O)cc1`: the TGI was more than 65.1 µM in [1]; 50.6 µM in experiment [2]; 53.1 µM in experiment [3]; 29.6 µM in experiment [4]; 4.63 µM in experiment [5]; 41.6 µM in experiment [6]. Also, the TGI was more than 86.7 µM in [7], 36.7 µM in experiment [8], 42.5 µM in [9] and 27 µM in experiment [10].

As for `N=C1N=C(N)c2cc3c(cc21)SCCSCCCSCCS3`, the TGI in experiment [1] was more than 69.6 µM; in experiment [2], 27.8 µM; in [3], 44.2 µM; in experiment [4], 15.9 µM; in experiment [5] it was 11.1 µM; in experiment [6], more than 100 µM. Also, the TGI was 37.7 µM in [7], 30.7 µM in experiment [8], 28.6 µM in [9] and more than 100 µM in experiment [10].

Regarding `O=C([C@H](O)[C@@H](O)c1ccc(Br)cc1)C12CC3CC(CC(C3)C1)C2`, the TGI in experiment [1] is 32.5 µM; in experiment [2], more than 38.9 µM; in experiment [3], more than 85.9 µM; in [4] it was more than 56.4 µM; in [5], more than 57.7 µM; in experiment [6], more than 57.1 µM. The TGI is more than 31.6 µM in experiment [7], more than 38.4 µM in [8], more than 47.8 µM in experiment [9] and more than 55.2 µM in [10].

As to `COc1ccc2[nH]c(C(=O)N3CC(CCl)c4ccc([N+](=O)[O-])cc43)cc2c1` (stereo not given), the TGI in experiment [1], in experiment [2], in [3], in experiment [4], in experiment [5] and in experiment [6] was more than 100 µM each time. The TGI in experiment [7], in [8], in experiment [9] and in experiment [10] was more than 100 µM each time.
